This is an account of results in patent publication US9862716B2, “TRKA kinase inhibitors, compositions and methods thereof” (Merck Sharp & Dohme Corp., priority 2014, dated 2018).

For this assay, the target named is T1, human TrkA receptor (Homo sapiens, UniProt P04629).
T1 construct: host or cells: U2OS cells (PathHunter cell line)
The experiment in a line: DiscoverX PathHunter TrkA functional assay (NGF-stimulated U2OS cells). The format is cell-based. The following applies: U2OS cells expressing human TrkA-PK, Shc1-EA and p75NTR; compound 1 h, then NGF at ~80% of maximal response for 3 h; luminescence.

T1 sequence (P04629 33-796): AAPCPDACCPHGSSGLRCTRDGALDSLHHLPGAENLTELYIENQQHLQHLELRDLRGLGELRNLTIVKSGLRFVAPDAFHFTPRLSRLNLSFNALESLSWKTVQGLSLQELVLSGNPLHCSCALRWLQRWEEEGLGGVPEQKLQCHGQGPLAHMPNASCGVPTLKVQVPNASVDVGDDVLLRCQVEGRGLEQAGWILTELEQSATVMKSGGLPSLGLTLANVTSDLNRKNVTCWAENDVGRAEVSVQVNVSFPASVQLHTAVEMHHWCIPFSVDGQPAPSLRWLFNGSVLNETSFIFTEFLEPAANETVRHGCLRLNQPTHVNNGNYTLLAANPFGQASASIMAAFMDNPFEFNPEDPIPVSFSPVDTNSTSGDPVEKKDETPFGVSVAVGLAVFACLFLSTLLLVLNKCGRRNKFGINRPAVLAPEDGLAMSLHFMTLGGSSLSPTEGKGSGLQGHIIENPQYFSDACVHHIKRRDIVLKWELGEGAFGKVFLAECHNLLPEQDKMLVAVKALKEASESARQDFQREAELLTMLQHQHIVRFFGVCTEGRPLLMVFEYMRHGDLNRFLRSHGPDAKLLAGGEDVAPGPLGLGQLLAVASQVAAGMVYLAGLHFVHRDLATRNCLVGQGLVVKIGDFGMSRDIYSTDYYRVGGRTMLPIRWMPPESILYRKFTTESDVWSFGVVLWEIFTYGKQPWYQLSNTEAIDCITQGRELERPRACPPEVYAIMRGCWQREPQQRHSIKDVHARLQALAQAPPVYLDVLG
Method: TrkA functional activity was measured using a DiscoverX PathHunter assay. In this assay, U2OS cells express the human TrkA receptor as a fusion with the weakly complementing fragment of B-galactosidase, which DiscoverX calls “Prolink (PK)”; additionally, Shc1 is fused with a larger fragment, which is called “Enzyme Acceptor (EA)”. Activation of the TrkA receptor, upon NGF addition, results in the kinase domain being phosphorylated, resulting in subsequent recruitment of Shc1-EA protein. That recruitment results in an active B-galactosidase enzyme that is detected by addition of a chemiluminescent substrate. The human p75^NTR protein was also expressed as a co-receptor for NGF.
All reagents were purchased from DiscoverX, except for the receptor agonists (NGF, BDNF, NT3) which were purchased from Peprotech. Cells were expanded and frozen into cryovials, and stored in the vapor phase of liquid nitrogen, and thawed immediately before use. Thawed cells were added to a 384-well plate at 7500 cells/well, and allowed to incubate overnight. Compound at various concentrations was added the following morning and allowed to incubate on cells for 1 h. Then, NGF was added at a concentration sufficient to elicit ˜80% of a maximal response and allowed to incubate for 3 h at ambient temperature. DiscoverX PathHunter detection reagent was then added and the plate was further incubated for 1 h in the dark. The plate was then read via luminescence on the Perkin Elmer Envision.

What is called IC50 is the concentration needed to halve the response being measured. High values mean weaker potency, low ones greater potency. For `CC(=O)NCc1ccn2c(NC(=O)c3ccc(C(F)(F)F)c(-c4ccn(C)n4)c3)c(-c3ccccc3)nc2c1` [Compound 79, N-{7-[(acetylamino)methyl]-2-phenylimidazo[1,2-a]pyridin-3-yl}-3-(1-methyl-1H-pyrazol-3-yl)-4-(trifluoromethyl) benzamide], the IC50 came out at 8.2 nM. Under `Cn1ccc(-c2cc(C(=O)Nc3c(-c4ccccc4)nc4cc(CNC(=O)CO)ccn34)ccc2C(F)(F)F)n1` [Compound 80, N-(7-{[(hydroxyacetyl)amino]methyl}-2-phenylimidazo[1,2-a]pyridin-3-yl)-3-(1-methyl-1H-pyrazol-3-yl)-4-(trifluoromethyl) benzamide] stands 20 nM; under `CNC(=O)NCc1ccn2c(NC(=O)c3ccc(C(F)(F)F)c(-c4ccn(C)n4)c3)c(-c3ccccc3)nc2c1` [Compound 81, N-(7-{[(methylcarbamoyl)amino]methyl}-2-phenylimidazo[1,2-a]pyridin-3-yl)-3-(1-methyl-1H-pyrazol-3-yl)-4-(trifluoromethyl) benzamide], 15 nM; under `COC(=O)NCc1ccn2c(NC(=O)c3ccc(C(F)(F)F)c(-c4ccn(C)n4)c3)c(-c3ccccc3)nc2c1` [Compound 83, methyl{[3-({[3-(1-methyl-1H-pyrazol-3-yl)-4-(trifluoromethyl)phenyl]carbonyl}amino)-2-phenylimidazo[1,2-a]pyridin-7-yl]methyl}carbamate], 0.77 nM.

For `Cn1ccc(-c2cc(C(=O)Nc3c(-c4ccccc4)nc4cc(CNS(C)(=O)=O)ccn34)ccc2C(F)(F)F)n1` [Compound 84, 3-(1-methyl-1H-pyrazol-3-yl)-N-(7-{[(methylsulfonyl)amino]methyl}-2-phenylimidazo[1,2-a]pyridin-3-yl)-4-(trifluoromethyl) benzamide], the IC50 was 3.1 nM. Under `O=C(Nc1c(-c2ccccc2)nn2ccccc12)c1cc(-c2ncccn2)c(C(F)(F)F)cc1F` [Compound 85, 2-fluoro-N-(2-phenylpyrazolo[1,5-a]pyridin-3-yl)-5-pyrimidin-2-yl-4-(trifluoromethyl) benzamide] stands 5 nM. Next, `N#Cc1ccc2[nH]c(-c3ccccc3)c(NC(=O)c3cc(-c4ncccn4)c(C(F)(F)F)cc3F)c2c1` [Compound 86, N-(5-cyano-2-phenyl-1H-indol-3-yl)-2-fluoro-5-pyrimidin-2-yl-4-(trifluoromethyl) benzamide]: 2.6 nM; `Cc1csc(-c2ccn3c(NC(=O)c4ccc(C(F)(F)F)c(-c5ccn(C)n5)c4)c(-c4ccccc4)nc3c2)n1` [Compound 87, 3-(1-methyl-1H-pyrazol-3-yl)-N-[7-(4-methyl-1,3-thiazol-2-yl)-2-phenylimidazo[1,2-a]pyridin-3-yl]-4-(trifluoromethyl) benzamide]: 0.68 nM.

Consider `Cn1ccc(-c2cc(C(=O)Nc3c(-c4ccccc4)nc4cc(N5CCOCC5)ccn34)ccc2C(F)(F)F)n1` [Compound 88, 3-(1-methyl-1H-pyrazol-3-yl)-N-(7-morpholin-4-yl-2-phenylimidazo[1,2-a]pyridin-3-yl)-4-(trifluoromethyl) benzamide], for which the IC50 was found to be 1.2 nM. Under `Cn1ccc(-c2cc(C(=O)Nc3c(-c4ccccc4)nc4cc(N5CCCC5)ccn34)ccc2C(F)(F)F)n1` [Compound 89, 3-(1-methyl-1H-pyrazol-3-yl)-N-(2-phenyl-7-pyrrolidin-1-ylimidazo[1,2-a]pyridin-3-yl)-4-(trifluoromethyl) benzamide] stands 5 nM; under `Cn1ccc(-c2cc(C(=O)Nc3c(-c4ccccc4)nc4cc(N5CCNCC5)ccn34)ccc2C(F)(F)F)n1` [Compound 90, 3-(1-methyl-1H-pyrazol-3-yl)-N-(2-phenyl-7-piperazin-1-ylimidazo[1,2-a]pyridin-3-yl)-4-(trifluoromethyl) benzamide], 3.8 nM; under `O=C(O)c1ccc2[nH]c(-c3ccccc3)c(NC(=O)c3cc(-c4ncccn4)c(C(F)(F)F)cc3F)c2c1` [Compound 91, 3-({[2-fluoro-5-pyrimidin-2-yl-4-(trifluoromethyl)phenyl]carbonyl}amino)-2-phenyl-1H-indole-5-carboxylic acid], 11 nM.

Compound `NC(=O)c1ccc2[nH]c(-c3ccccc3)c(NC(=O)c3cc(-c4ncccn4)c(C(F)(F)F)cc3F)c2c1` [Compound 92, 3-({[2-fluoro-5-pyrimidin-2-yl-4-(trifluoromethyl)phenyl]carbonyl}amino)-2-phenyl-1H-indole-5-carboxamide] displayed an IC50 of 8.7 nM. Under `Cc1cc(C(F)(F)F)c(-c2ccn(C)n2)cc1C(=O)Nc1c(-c2ccccc2)nc2cc([C@@H](C)O)ccn12` [Compound 93, N-{7-[(1R)-1-hydroxyethyl]-2-phenylimidazo[1,2-a]pyridin-3-yl}-2-methyl-5-(1-methyl-1H-pyrazol-3-yl)-4-(trifluoromethyl) benzamide] stands 4.7 nM; under `Cn1ccc(-c2cc(C(=O)Nc3c(-c4ccccc4)nn4ccc(C(C)(C)O)cc34)ccc2C(F)(F)F)n1` [Compound 96, N-[5-(1-hydroxy-1-methylethyl)-2-phenylpyrazolo[1,5-a]pyridin-3-yl]-3-(1-methyl-1H-pyrazol-3-yl)-4-(trifluoromethyl) benzamide], 6.7 nM; under `Cn1ccc(-c2cc(C(=O)Nc3c(-c4ccccc4)nc4cc(CCO)ccn34)ccc2C(F)(F)F)n1` [Compound 99, N-[7-(2-hydroxyethyl)-2-phenylimidazo[1,2-a]pyridin-3-yl]-3-(1-methyl-1H-pyrazol-3-yl)-4-(trifluoromethyl) benzamide], 2.1 nM. Next, `Cn1ccc(-c2cc(C(=O)Nc3c(-c4ccccc4)nc4cc(CCN)ccn34)ccc2C(F)(F)F)n1` [Compound 100, N-[7-(2-aminoethyl)-2-phenylimidazo[1,2-a]pyridin-3-yl]-3-(1-methyl-1H-pyrazol-3-yl)-4-(trifluoromethyl) benzamide]: 13 nM. `CC(=O)NCCc1ccn2c(NC(=O)c3ccc(C(F)(F)F)c(-c4ccn(C)n4)c3)c(-c3ccccc3)nc2c1` [Compound 101, N-{7-[2-(acetylamino)ethyl]-2-phenylimidazo[1,2-a]pyridin-3-yl}-3-(1-methyl-1H-pyrazol-3-yl)-4-(trifluoromethyl) benzamide] showed an IC50 of 10 nM. The compound `Cn1ccc(-c2cc(C(=O)Nc3c(-c4ccccc4)nc4cc(CCNS(C)(=O)=O)ccn34)ccc2C(F)(F)F)n1` [Compound 102, 3-(1-methyl-1H-pyrazol-3-yl)-N-(7-{2-[(methylsulfonyl)amino]ethyl}-2-phenylimidazo[1,2-a]pyridin-3-yl)-4-(trifluoromethyl) benzamide] came in with an IC50 of 4.3 nM. Take `Cn1ccc(-c2cc(C(=O)Nc3c(-c4ccccc4)nn4ccc(C(C)(C)O)cc34)c(F)cc2C(F)(F)F)n1` [Compound 103, 2-fluoro-N-[5-(1-hydroxy-1-methylethyl)-2-phenylpyrazolo[1,5-a]pyridin-3-yl]-5-(1-methyl-1H-pyrazol-3-yl)-4-(trifluoromethyl) benzamide]: inhibition was half-maximal at 0.94 nM (IC50).

In turn, `COC(=O)NCCc1ccn2c(NC(=O)c3ccc(C(F)(F)F)c(-c4ccn(C)n4)c3)c(-c3ccccc3)nc2c1` [Compound 104, methyl{2-[3-({[3-(1-methyl-1H-pyrazol-3-yl)-4-(trifluoromethyl)phenyl]carbonyl}amino)-2-phenylimidazo[1,2-a]pyridin-7-yl]ethyl}carbamate] showed an IC50 of 1.7 nM. Next, `O=C(Nc1c(-c2ccccc2)nc2ccccn12)c1cc(-c2ncccn2)c(C(F)(F)F)cc1F` [Compound 105, 2-fluoro-N-(2-phenylimidazo[1,2-a]pyridin-3-yl)-5-pyrimidin-2-yl-4-(trifluoromethyl) benzamide]: 1.4 nM; `Cn1ccc(-c2cc(C(=O)Nc3c(-c4ccccc4)[nH]c4ccc(C#N)cc34)c(F)cc2C(F)(F)F)n1` [Compound 108, N-(5-cyano-2-phenyl-1H-indol-3-yl)-2-fluoro-5-(1-methyl-1H-pyrazol-3-yl)-4-(trifluoromethyl) benzamide]: 1 nM.

As for `CNCCc1ccn2c(NC(=O)c3ccc(C(F)(F)F)c(-c4ccn(C)n4)c3)c(-c3ccccc3)nc2c1` [Compound 109, N-{7-[2-(methylamino)ethyl]-2-phenylimidazo[1,2-a]pyridin-3-yl}-3-(1-methyl-1H-pyrazol-3-yl)-4-(trifluoromethyl) benzamide], the midpoint of inhibition, the IC50, lay at 169 nM. Under `Cn1ccc(-c2cc(C(=O)Nc3c(-c4ccccc4)[nH]c4ccc(C(=O)O)cc34)c(F)cc2C(F)(F)F)n1` [Compound 110, 3-({[2-fluoro-5-(1-methyl-1H-pyrazol-3-yl)-4-(trifluoromethyl)phenyl]carbonyl}amino)-2-phenyl-1H-indole-5-carboxylic acid] stands 3.6 nM; under `Cn1ccc(-c2cc(C(=O)Nc3c(-c4ccccc4)nn4cc(C#N)ccc34)c(F)cc2C(F)(F)F)n1` [Compound 111, N-(6-cyano-2-phenylpyrazolo[1,5-a]pyridin-3-yl)-2-fluoro-5-(1-methyl-1H-pyrazol-3-yl)-4-(trifluoromethyl) benzamide], 1000 nM. Next, `C[C@@H](O)c1ccn2c(NC(=O)c3cc(-c4ccn(C)n4)c(C(F)(F)CF)cc3F)c(-c3ccccc3)nc2c1` [Compound 115, 2-fluoro-N-{7-[(1R)-1-hydroxyethyl]-2-phenylimidazo[1,2-a]pyridin-3-yl}-5-(1-methyl-1H-pyrazol-3-yl)-4-(1,1,2-trifluoroethyl)benzamide]: 3.7 nM.
